What was measured:
[1] = In-vivo pharmacokinetic analysis (beagle), single oral administration; settings: dog, plasma, beagles, Docetaxel PO 50 mg/kg
Text: The compositions of Example 83 and Comparative Example 1 were single orally administered to beagles to obtain plasma drug concentration information. The results are shown in Tables 12 and 13 below and FIGS. 8 and 9.

[2] = in vivo; settings: rat, po, 50 mg/kg
Description: The graphs of FIGS. 1, 3, 5, and 6 show the docetaxel concentrations in plasma over time in rats, which were measured by collecting blood at 0 hr, 0.25 hr, 0.5 hr, 1 hr, 2 hr, 4 hr, 6 hr, 8 hr, and 12 hr.

CC(=O)O[C@@]12CO[C@@H]1C[C@H](O)[C@@]1(C)C(=O)[C@H](O)C3=C(C)[C@@H](OC(=O)[C@H](O)[C@@H](NC(=O)OC(C)(C)C)c4ccccc4)C[C@@](O)([C@@H](OC(=O)c4ccccc4)[C@H]21)C3(C)C [Comparative Example 1, Docetaxel]
AUC(0-t) [1]: 1.86 ng·h/mL | Cmax [1]: 0.5 ng/mL | Tmax [1]: 3.5 h | concentration at 0.25 h ([1]; 0.25 h, mean n = 2): 0.239 ng/mL | concentration at 0.5 h ([1]; 0.5 h, mean n = 2): 0.219 ng/mL | concentration at 1 h ([1]; 1 h, mean n = 2): 0.243 ng/mL | concentration at 2 h ([1]; 2 h, mean n = 2): 0.14 ng/mL | concentration at 4 h ([1]; 4 h, mean n = 2): 0.621 ng/mL | concentration at 6 h ([1]; 6 h, mean n = 2): 0.675 ng/mL | concentration at 8 h ([1]; 8 h, mean n = 2): 0.222 ng/mL | AUC(0-t) [2]: 0.85 ng·h/mL | Cmax [2]: 0.12 ng/mL | Tmax [2]: 12 h

Reference: patent US20250235424A1, “PHARMACEUTICAL COMPOSITION CONTAINING DOCETAXEL OR PHARMACEUTICALLY ACCEPTABLE SALT THEREOF AND PREPARATION METHOD THEREFOR” (WEBIOTREE CO., LTD, priority 2022, published 2025)
